Experimental findings from the supplement of paper PMC8976852 are described below.

Assay in all cases: activity (1 - area under the dose-response curve within the screened range) (fraction); higher = more sensitive
What all share (conditions): treatment time: 72 h

One experiment deals with HCM-SANG-0266-C20 (colorectal cancer organoid). On the procedure:
(§1)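 Patient-derived cancer organoids (colorectal and oesophageal, HCM-SANG models) were grown for up to 6 months in 5% or 80% ECM (BME-2), then seeded in 384-well plates on an ECM layer and treated with 72 compounds for 3 days. Each compound used a 7-point half-log dilution series spanning a 1000-fold range, in technical triplicate and biological duplicate. Dose-response curves were fitted with a non-linear mixed effects model; fits with RMSE > 0.3 were removed, and activity = 1 - AUC within the screened dose range (0 = no activity, 1 = maximum).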

The next experiment deals with HCM-SANG-0270-C20 (colorectal cancer organoid). How it is done:
as §1

The subject of a further experiment is HCM-SANG-0291-C15 (oesophageal cancer organoid). How it is done: as §1
A further experiment concerns HCM-SANG-0532-C20 (colorectal cancer organoid). On the procedure:
as §1

The mark [1] stands for this setting: ECM percentage in culture prior to screening 5 %.
[2] abbreviates: ECM percentage in culture prior to screening 80 %.

± gives the standard deviation of the averaged measurements.

Turning to `O=c1cc(-c2cccc3c2Sc2ccccc2S3)oc(N2CCOCC2)c1`, the activity in the experiment on HCM-SANG-0266-C20 (setting [1]) was found to be 0.0362 ± 0.021; with HCM-SANG-0266-C20 (setting [2]), 0.0433 ± 0.027; in the experiment with HCM-SANG-0270-C20 (setting [1]) it was 0.0345 ± 0.015; with HCM-SANG-0270-C20 (setting [2]), 0.0384 ± 0.0084; in the experiment with HCM-SANG-0291-C15 (setting [1]) it was 0.068 ± 0.034; in the experiment on HCM-SANG-0291-C15 (setting [2]) it was 0.0493 ± 0.031. The activity in the experiment with HCM-SANG-0532-C20 (setting [1]) is 0.0709 ± 0.021; with HCM-SANG-0532-C20 (setting [2]), 0.037 ± 0.01.

As for `Cc1nc(-c2cn3c(n2)-c2ccc(-c4cnn(C(C)(C)C(N)=O)c4)cc2OCC3)n(C(C)C)n1` [Taselisib], the activity in the experiment on HCM-SANG-0266-C20 (setting [1]) turned out to be 0.413 ± 0.13; with HCM-SANG-0266-C20 (setting [2]), 0.263 ± 0.14; in the experiment with HCM-SANG-0270-C20 (setting [1]), 0.0832 ± 0.048; in the experiment with HCM-SANG-0270-C20 (setting [2]), 0.0597 ± 0.055; in the experiment on HCM-SANG-0291-C15 (setting [1]), 0.0465 ± 0.018; with HCM-SANG-0291-C15 (setting [2]), 0.0601 ± 0.017. For the same compound, the activity with HCM-SANG-0532-C20 (setting [1]) stood at 0.158 ± 0.12; with HCM-SANG-0532-C20 (setting [2]), 0.249 ± 0.059.

As to `C[C@@H]1COCCN1c1cc(C2([S@](C)(=N)=O)CC2)nc(-c2cc[nH]c3nccc2-3)n1` [AZD6738], the activity turned out to be 0.185 ± 0.037 with HCM-SANG-0266-C20 (setting [1]); 0.178 ± 0.033 with HCM-SANG-0266-C20 (setting [2]); 0.09 ± 0.039 with HCM-SANG-0270-C20 (setting [1]); 0.0864 ± 0.052 with HCM-SANG-0270-C20 (setting [2]); 0.199 ± 0.027 in the experiment on HCM-SANG-0291-C15 (setting [1]); 0.211 ± 0.037 in the experiment with HCM-SANG-0291-C15 (setting [2]). The values for the activity in the experiment on HCM-SANG-0532-C20 (setting [1]) and in the experiment with HCM-SANG-0532-C20 (setting [2]) were 0.116 ± 0.065 and 0.108 ± 0.026, respectively.

As for `Nc1nc2[nH]cc(CCc3ccc(C(=O)N[C@@H](CCC(=O)O)C(=O)O)cc3)c2c(=O)[nH]1` [Pemetrexed], the activity was 0.0697 ± 0.056 with HCM-SANG-0266-C20 (setting [1]); 0.0926 ± 0.047 in the experiment on HCM-SANG-0266-C20 (setting [2]); 0.117 ± 0.049 in the experiment with HCM-SANG-0270-C20 (setting [1]); 0.164 ± 0.1 with HCM-SANG-0270-C20 (setting [2]); 0.0737 ± 0.036 with HCM-SANG-0291-C15 (setting [1]); 0.0434 ± 0.025 with HCM-SANG-0291-C15 (setting [2]). The results for the activity in the experiment on HCM-SANG-0532-C20 (setting [1]) and with HCM-SANG-0532-C20 (setting [2]) were 0.0604 ± 0.023 and 0.0425 ± 0.012, respectively.

With `COc1cc(CCc2cc(NC(=O)c3ccc(N4CC(C)NC(C)C4)cc3)n[nH]2)cc(OC)c1` (stereo not drawn) [AZD4547], the activity was 0.0268 ± 0.015 with HCM-SANG-0266-C20 (setting [1]); 0.0233 ± 0.0077 with HCM-SANG-0266-C20 (setting [2]); 0.0358 ± 0.023 with HCM-SANG-0270-C20 (setting [1]); 0.0323 ± 0.017 with HCM-SANG-0270-C20 (setting [2]); 0.0191 ± 0.001 in the experiment with HCM-SANG-0291-C15 (setting [1]); 0.0289 ± 0.014 in the experiment with HCM-SANG-0291-C15 (setting [2]). In addition, the results for the activity with HCM-SANG-0532-C20 (setting [1]) and in the experiment with HCM-SANG-0532-C20 (setting [2]) were 0.0579 ± 0.039 and 0.0368 ± 0.013, respectively.

On to `CC[C@@H]1C(=O)N(C)c2cnc(Nc3ccc(C(=O)NC4CCN(C)CC4)cc3OC)nc2N1C1CCCC1` [BI-2536], for which the activity was 0.439 ± 0.041 with HCM-SANG-0266-C20 (setting [1]); 0.436 ± 0.036 in the experiment on HCM-SANG-0266-C20 (setting [2]); 0.305 ± 0.17 in the experiment on HCM-SANG-0270-C20 (setting [1]); 0.311 ± 0.11 in the experiment with HCM-SANG-0270-C20 (setting [2]); 0.429 ± 0.043 in the experiment with HCM-SANG-0291-C15 (setting [1]); 0.464 ± 0.06 in the experiment on HCM-SANG-0291-C15 (setting [2]). In addition, the activity in the experiment with HCM-SANG-0532-C20 (setting [1]) was 0.292 ± 0.087; in the experiment with HCM-SANG-0532-C20 (setting [2]), 0.335 ± 0.046.

With `Nc1ccccc1NC(=O)c1ccc(CNC(=O)OCc2cccnc2)cc1` [Entinostat], the activity with HCM-SANG-0266-C20 (setting [1]) stood at 0.0903 ± 0.02; in the experiment on HCM-SANG-0266-C20 (setting [2]), 0.0905 ± 0.023; in the experiment with HCM-SANG-0270-C20 (setting [1]), 0.0723 ± 0.025; in the experiment on HCM-SANG-0270-C20 (setting [2]) it was 0.0687 ± 0.041; in the experiment on HCM-SANG-0291-C15 (setting [1]), 0.124 ± 0.045; in the experiment with HCM-SANG-0291-C15 (setting [2]), 0.119 ± 0.047. The activity in the experiment on HCM-SANG-0532-C20 (setting [1]) came out at 0.0795 ± 0.022; with HCM-SANG-0532-C20 (setting [2]), 0.102 ± 0.025.

As to `c1cn2cc(-c3ccc4cn[nH]c4c3)nc(Nc3ccc(N4CCOCC4)cc3)c2n1` [Entospletinib], the activity in the experiment with HCM-SANG-0266-C20 (setting [1]) is 0.0298 ± 0.01; in the experiment on HCM-SANG-0266-C20 (setting [2]), 0.0227 ± 0.0068; in the experiment with HCM-SANG-0270-C20 (setting [1]) it was 0.0261 ± 0.0085; with HCM-SANG-0270-C20 (setting [2]), 0.0204 ± 0.0032; with HCM-SANG-0291-C15 (setting [1]), 0.0238 ± 0.0074; in the experiment on HCM-SANG-0291-C15 (setting [2]), 0.0204 ± 0.0022. Moreover, the results for the activity in the experiment with HCM-SANG-0532-C20 (setting [1]) and in the experiment with HCM-SANG-0532-C20 (setting [2]) were 0.0354 ± 0.019 and 0.0256 ± 0.0054, respectively.

With `Cc1cccc(-c2[nH]c(C(C)(C)C)nc2-c2ccc3c(c2)OCO3)n1`, the activity worked out at 0.0398 ± 0.022 with HCM-SANG-0266-C20 (setting [1]); 0.0534 ± 0.016 in the experiment on HCM-SANG-0266-C20 (setting [2]); 0.0741 ± 0.023 in the experiment on HCM-SANG-0270-C20 (setting [1]); 0.0613 ± 0.046 with HCM-SANG-0270-C20 (setting [2]); 0.0256 ± 0.0074 in the experiment with HCM-SANG-0291-C15 (setting [1]); 0.0336 ± 0.018 in the experiment on HCM-SANG-0291-C15 (setting [2]). In addition, the activity in the experiment with HCM-SANG-0532-C20 (setting [1]) was 0.0437 ± 0.015; in the experiment with HCM-SANG-0532-C20 (setting [2]), 0.0531 ± 0.017.

Regarding `Cn1nnc2c(C(N)=O)ncn2c1=O` [Temozolomide], the activity in the experiment with HCM-SANG-0266-C20 (setting [1]) stood at 0.0575 ± 0.021; in the experiment with HCM-SANG-0266-C20 (setting [2]), 0.0651 ± 0.031; in the experiment with HCM-SANG-0270-C20 (setting [1]), 0.028 ± 0.013; in the experiment with HCM-SANG-0270-C20 (setting [2]), 0.0261 ± 0.0071; in the experiment with HCM-SANG-0291-C15 (setting [1]), 0.02 ± 0.0034; in the experiment on HCM-SANG-0291-C15 (setting [2]), 0.0234 ± 0.0089. Also, the figures for the activity in the experiment on HCM-SANG-0532-C20 (setting [1]) and in the experiment on HCM-SANG-0532-C20 (setting [2]) were 0.0253 ± 0.0078 and 0.024 ± 0.0046, respectively.

As to `O=c1[nH]cc(F)c(=O)[nH]1` [5-Fluorouracil], the activity is 0.137 ± 0.068 in the experiment with HCM-SANG-0266-C20 (setting [1]); 0.12 ± 0.061 in the experiment on HCM-SANG-0266-C20 (setting [2]); 0.123 ± 0.031 with HCM-SANG-0270-C20 (setting [1]); 0.103 ± 0.075 with HCM-SANG-0270-C20 (setting [2]); 0.0848 ± 0.043 with HCM-SANG-0291-C15 (setting [1]); 0.063 ± 0.035 with HCM-SANG-0291-C15 (setting [2]). Besides, the activity stood at 0.0766 ± 0.035 with HCM-SANG-0532-C20 (setting [1]) and 0.121 ± 0.044 with HCM-SANG-0532-C20 (setting [2]).
